This is an account of results in ChEMBL document CHEMBL1152268, “Discovery and SAR of novel 4-thiazolyl-2-phenylaminopyrimidines as potent inhibitors of spleen tyrosine kinase (SYK)” (Bioorg Med Chem Lett, 2008).

Each structure is given as a SMILES string. The source made the active and inactive calls. The calls are words filed in the database; no cut-off is given here. Some results are limits rather than exact numbers.

Data set [1] concerns the target Cyclin-dependent kinase 2 (Homo sapiens, UniProt P24941). The experiment in a line: Inhibition of CDK2.
In data set [2] the target is Proto-oncogene tyrosine-protein kinase Src (Homo sapiens, UniProt P12931). The experiment in a line: Inhibition of SRC.
Proto-oncogene tyrosine-protein kinase Src, sequence (P12931 2-536 limits assumed): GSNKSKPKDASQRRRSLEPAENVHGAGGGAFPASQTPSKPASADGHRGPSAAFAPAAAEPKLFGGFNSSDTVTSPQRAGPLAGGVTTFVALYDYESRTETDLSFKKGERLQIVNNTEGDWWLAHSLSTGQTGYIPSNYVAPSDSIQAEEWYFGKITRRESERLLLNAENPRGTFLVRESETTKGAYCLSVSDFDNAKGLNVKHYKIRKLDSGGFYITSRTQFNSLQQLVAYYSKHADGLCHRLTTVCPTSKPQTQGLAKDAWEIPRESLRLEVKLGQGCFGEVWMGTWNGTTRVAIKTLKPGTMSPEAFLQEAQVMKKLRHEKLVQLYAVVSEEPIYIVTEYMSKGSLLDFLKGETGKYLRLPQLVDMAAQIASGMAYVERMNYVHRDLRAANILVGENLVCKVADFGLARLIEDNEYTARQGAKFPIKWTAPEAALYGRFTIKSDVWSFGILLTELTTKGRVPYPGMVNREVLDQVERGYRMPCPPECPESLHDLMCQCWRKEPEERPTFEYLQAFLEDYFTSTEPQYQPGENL
Data set [3] deals with T1, Tyrosine-protein kinase ZAP-70 (Homo sapiens, UniProt P43403).
T1 sequence (P43403 whole entry): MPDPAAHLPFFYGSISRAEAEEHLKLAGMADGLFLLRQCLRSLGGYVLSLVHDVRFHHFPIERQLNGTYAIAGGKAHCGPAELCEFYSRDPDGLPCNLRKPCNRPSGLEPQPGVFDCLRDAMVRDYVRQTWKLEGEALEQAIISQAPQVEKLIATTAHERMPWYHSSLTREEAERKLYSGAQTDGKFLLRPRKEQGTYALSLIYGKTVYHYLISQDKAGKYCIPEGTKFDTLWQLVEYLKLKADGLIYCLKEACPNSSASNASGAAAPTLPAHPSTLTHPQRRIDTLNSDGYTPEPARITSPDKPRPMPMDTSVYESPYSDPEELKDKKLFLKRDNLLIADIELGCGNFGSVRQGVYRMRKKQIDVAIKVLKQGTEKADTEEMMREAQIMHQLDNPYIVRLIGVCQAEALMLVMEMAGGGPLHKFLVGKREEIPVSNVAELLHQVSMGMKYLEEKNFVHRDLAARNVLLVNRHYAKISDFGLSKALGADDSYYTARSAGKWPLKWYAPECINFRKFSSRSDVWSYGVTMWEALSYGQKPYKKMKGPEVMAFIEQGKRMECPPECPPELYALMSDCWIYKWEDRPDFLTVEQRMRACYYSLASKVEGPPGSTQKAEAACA
The experiment in a line: (§1) Inhibition of ZAP70.

In data set [4] the target is Tyrosine-protein kinase SYK (Homo sapiens, UniProt P43405).
Data set [5] is described as follows: (§2) Metabolic stability in rat liver microsomes after 30 mins. The data set is classed as ADME, Microsome. Conditions: liver microsomes, read-out: Stability. (Liver microsomes are vesicles of endoplasmic reticulum, rich in cytochrome P450 enzymes.)
The test system of the next data set is Liver microsomes. The data set is described as §2. The data set is classed as ADME, Microsome. Conditions: microsomes, 0.5 h.
Data set [6] has as its target T2, Tyrosine-protein kinase ZAP-70 (Homo sapiens) (UniProt P43403).
T2 sequence (whole entry): T1 sequence (P43403 whole entry)
Described as §1.

By Ki is commonly meant the dissociation constant of the complex between target and ligand, obtained from inhibition or displacement. Low values mean higher affinity, high ones lower affinity. On to `Cc1cc(Nc2nccc(-c3nc(CO)cs3)n2)cc(C(F)(F)F)c1`, for which the Ki is 1500 nM in data set [1], 1800 nM in data set [2], 750 nM in data set [3] and 10 nM in data set [4]. Also, the remaining at 0.5 h in data set [5] was found to be 64%.

With `Cc1cc(C)cc(Nc2nccc(-c3ncc(CO)s3)n2)c1`, the inhibition constant (Ki) in data set [1] is above 2500 nM; in data set [2], 2000 nM; in data set [3], 270 nM; in data set [4] it was 4 nM. Moreover, in data set [5], the remaining at 0.5 h was 37%.

As for `Cc1cc(Nc2nccc(-c3nc(C)c(CCO)s3)n2)cc(C(F)(F)F)c1`, the inhibitory constant (Ki) in data set [1] is above 2500 nM; in data set [2], 3500 nM; in data set [3] it was 3500 nM; in data set [4] it was 22 nM. The remaining at 0.5 h in data set [5] came out at 80%.

For `Oc1cc(Nc2nccc(-c3nccs3)n2)cc(C(F)(F)F)c1`, the Ki in data set [1] turned out to be 1650 nM; in data set [2] it was 991 nM; in data set [3] it was 754 nM; in data set [4], 44 nM. Moreover, the remaining at 0.5 h in data set [5] came out at 24%.

On to `Cc1cccc(Nc2nccc(-c3nccs3)n2)c1`, for which the Ki in data set [1] is 2450 nM; in data set [2] it was 2980 nM; in data set [3], 1550 nM; in data set [4] it was 82 nM. Besides, in the data set with Liver microsomes, the Activity result is given as “Not Active”.

With `COc1cc(Nc2nccc(-c3nccs3)n2)cc(C(F)(F)F)c1`, the Ki in data set [1] is above 5000 nM; in data set [2], 1830 nM; in data set [3], 2150 nM; in data set [4], 28 nM. The remaining at 0.5 h in data set [5] came out at 54%.

For `Cc1cc(C)cc(Nc2nccc(-c3nc(C)cs3)n2)c1`, the Ki in data set [1] was found to be 100 nM; in data set [2] it was 2030 nM; in data set [3], 1030 nM; in data set [4] it was 56 nM. For the same compound, the Activity with Liver microsomes came out at 5%.

In the case of `Cc1ccc(C)c(Nc2nccc(-c3nccs3)n2)c1`, the result was inactive. Moreover, in data set [1], the Ki was above 5000 nM. This compound returned a Ki in data set [2] of 153 nM. The outcome in data set [6] was inactive. Besides, in data set [4], affinity was put at a Ki of 1820 nM. For the same compound, the Activity result in the data set with Liver microsomes was “Not Active”.

For the compound `Cc1cc(C)cc(Nc2nccc(-c3nc(CO)cs3)n2)c1`, the Ki in data set [1] was determined as 2400 nM; in data set [2], 2230 nM; in data set [3], 450 nM; in data set [4], 10 nM. In data set [5], the remaining at 0.5 h amounted to 35%.

Consider `Cc1cc(C)cc(Nc2nccc(-c3nc(C)c(C(=O)N[C@@H](C)CO)s3)n2)c1`, for which the Ki was above 3330 nM in data set [1], above 3330 nM in data set [2] and 240 nM in data set [3].

In the case of `Cc1cc(C)cc(Nc2nccc(-c3ncc(C)s3)n2)c1`, the Ki in data set [1] is 1100 nM; in data set [2], 348 nM; in data set [3], 410 nM; in data set [4], 23 nM. This compound came in with an Activity with Liver microsomes of 15%.

`COc1cc(Nc2nccc(-c3nc(CO)cs3)n2)cc(C(F)(F)F)c1`: the Ki in data set [1] is above 2500 nM; in data set [2], 3500 nM; in data set [3], 1000 nM; in data set [4], 33 nM. For the same compound, the Activity entry in the data set on Liver microsomes was “Not Active”.

As for `COc1cc(Nc2nccc(-c3ncc(C)s3)n2)cc(C(F)(F)F)c1`, the Ki was above 2500 nM in data set [1], 3700 nM in data set [2], 1140 nM in data set [3] and 23 nM in data set [4]. Also, the Activity result in the data set with Liver microsomes is “Not Active”.

On to `Cc1cc(Nc2nccc(-c3nccs3)n2)cc(C(F)(F)F)c1`, for which the inhibition constant Ki in data set [1] was above 5000 nM; in data set [2], 1360 nM; in data set [3] it was 891 nM; in data set [4], 110 nM. For the same compound, the Activity entry in the data set on Liver microsomes is on record as “Not Active”.

Broadly, the IC50 is the concentration that inhibits the measured activity by half. The low end stands for greater potency in that assay, the high end for weaker potency in that assay. Consider `NCCCNc1nc(-c2ccc(N3CCOCC3)cc2)cc2ccccc12`, for which inhibition in data set [4] was half-maximal at 8 nM (IC50). That is a single-digit nanomolar value.

Consider `Cc1cc(C)cc(Nc2nccc(-c3nc(C)c(CCO)s3)n2)c1`, for which the Ki in data set [1] turned out to be 2270 nM; in data set [2] it was 3500 nM; in data set [3], 560 nM; in data set [4], 32 nM. Also, the remaining at 0.5 h in data set [5] was found to be 65%.

With `COc1cc(Nc2nccc(-c3nccs3)n2)cc(OC)c1`, the Ki is above 5000 nM in data set [1], 862 nM in data set [2], 318 nM in data set [3] and 14 nM in data set [4]. The remaining at 0.5 h in data set [5] is 12%.

As to `c1ccc(Oc2cccc(Nc3nccc(-c4nccs4)n3)c2)cc1`, the affinity in data set [4], expressed as Ki, was 630 nM.

As for `Cc1cc(C)cc(Nc2nccc(-c3nccs3)n2)c1`, the Ki is above 5000 nM in data set [1], 1060 nM in data set [2], 419 nM in data set [3] and 8 nM in data set [4]. The remaining at 0.5 h in data set [5] came out at 24%.

For the compound `OCc1csc(-c2ccnc(Nc3cc(O)cc(C(F)(F)F)c3)n2)n1`, the Ki in data set [1] is 1500 nM; in data set [2] it was 4000 nM; in data set [3] it was 680 nM; in data set [4] it was 50 nM. Besides, in data set [5], the remaining at 0.5 h amounted to 50%.

For the compound `OCCCOc1cc(Nc2nccc(-c3nccs3)n2)cc(C(F)(F)F)c1`, the Ki in data set [1] was above 5000 nM; in data set [2] it was 422 nM; in data set [3] it was 677 nM; in data set [4], 26 nM. In data set [5], the remaining at 0.5 h is 68%.

Turning to `Cc1cc(C)cc(Nc2nccc(-c3nc(C)c(C(=O)N[C@H](C)CO)s3)n2)c1`, the Ki was above 3330 nM in data set [1], above 3330 nM in data set [2], 1500 nM in data set [3] and 210 nM in data set [4].
